Laboratory results: patent publication US12209081B2 (Katholieke Universiteit Leuven, priority 2020, dated 2025)

Biological target: mouse TRPM3α2 (mTRPM3) ion channel (Mus musculus (Mouse), UniProt J9SQF3)
Assay: TRPM3 ion channel driven Ca2+ uptake, Fluo-4 AM assay, mTRPM3alpha2 overexpressing flip-in HEK293 cells stimulated with pregnenolone sulfate
Type: cell-based
Settings: PS (50 μM) stimulated, cpd 001-199
In short: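 Flip-in HEK293 cells loaded with Fluo-4 AM were added to plates holding compound plus 50 μM pregnenolone sulfate in Ca2+-containing Krebs buffer. Fluorescence (ex 485/em 535 nm) read directly after cell addition; % inhibition relative to PS-stimulated vehicle and positive-control inhibitor.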

Sequence of mouse TRPM3α2 (mTRPM3) ion channel (J9SQF3 other isoform, or with tags, fused parts or gaps): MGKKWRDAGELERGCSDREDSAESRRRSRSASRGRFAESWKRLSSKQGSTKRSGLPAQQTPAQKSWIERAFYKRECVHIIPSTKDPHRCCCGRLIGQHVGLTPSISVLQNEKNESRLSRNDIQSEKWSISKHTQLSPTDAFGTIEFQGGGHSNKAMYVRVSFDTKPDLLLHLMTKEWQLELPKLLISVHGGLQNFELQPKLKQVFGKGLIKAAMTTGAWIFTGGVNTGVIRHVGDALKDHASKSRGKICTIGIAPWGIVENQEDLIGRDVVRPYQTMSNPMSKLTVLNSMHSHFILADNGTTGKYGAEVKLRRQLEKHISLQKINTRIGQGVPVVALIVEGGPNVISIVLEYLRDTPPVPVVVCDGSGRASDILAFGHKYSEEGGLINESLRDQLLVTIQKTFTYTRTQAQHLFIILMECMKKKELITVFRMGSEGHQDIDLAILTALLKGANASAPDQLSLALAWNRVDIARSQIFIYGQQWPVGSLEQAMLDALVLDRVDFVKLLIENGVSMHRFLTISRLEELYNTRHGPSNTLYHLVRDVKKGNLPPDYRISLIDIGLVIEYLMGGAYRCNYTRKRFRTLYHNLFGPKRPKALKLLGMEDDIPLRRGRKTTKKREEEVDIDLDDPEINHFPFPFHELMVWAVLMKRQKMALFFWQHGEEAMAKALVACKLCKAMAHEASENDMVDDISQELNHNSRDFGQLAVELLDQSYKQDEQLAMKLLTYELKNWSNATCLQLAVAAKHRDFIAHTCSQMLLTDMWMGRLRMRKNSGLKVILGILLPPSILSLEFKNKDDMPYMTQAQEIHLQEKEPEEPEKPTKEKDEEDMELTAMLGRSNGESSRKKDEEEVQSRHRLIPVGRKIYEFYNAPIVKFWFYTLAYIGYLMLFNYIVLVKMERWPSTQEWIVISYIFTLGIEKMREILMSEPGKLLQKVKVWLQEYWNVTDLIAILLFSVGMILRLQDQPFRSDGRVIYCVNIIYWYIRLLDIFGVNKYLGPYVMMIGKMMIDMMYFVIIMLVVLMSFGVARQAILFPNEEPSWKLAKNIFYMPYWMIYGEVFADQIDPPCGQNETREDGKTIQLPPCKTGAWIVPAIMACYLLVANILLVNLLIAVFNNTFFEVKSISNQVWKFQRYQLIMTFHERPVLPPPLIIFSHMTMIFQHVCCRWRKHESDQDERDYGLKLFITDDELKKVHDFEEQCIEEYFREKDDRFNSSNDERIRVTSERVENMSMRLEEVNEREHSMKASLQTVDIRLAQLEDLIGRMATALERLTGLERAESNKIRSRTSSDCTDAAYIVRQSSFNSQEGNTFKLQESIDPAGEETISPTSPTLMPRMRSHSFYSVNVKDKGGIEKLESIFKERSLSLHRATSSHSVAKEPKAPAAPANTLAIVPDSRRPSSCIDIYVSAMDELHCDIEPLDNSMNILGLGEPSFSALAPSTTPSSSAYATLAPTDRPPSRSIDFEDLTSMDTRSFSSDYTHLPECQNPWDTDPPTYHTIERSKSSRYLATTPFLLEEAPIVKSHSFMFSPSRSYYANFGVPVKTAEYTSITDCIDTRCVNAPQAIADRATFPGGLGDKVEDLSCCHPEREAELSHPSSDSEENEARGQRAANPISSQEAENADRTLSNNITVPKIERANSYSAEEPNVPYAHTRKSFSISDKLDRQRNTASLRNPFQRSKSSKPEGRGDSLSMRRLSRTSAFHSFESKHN

| IC50 [nM] | SMILES |
| --- | --- |
| < 1000 | Cc1ncsc1COc1ccc2oc(C)c(C(=O)NC3COCC3O)c2c1 (single isomer, unassigned; dia 1) [162-Dia 1-En1] |
| < 1000 | Cc1ncsc1COc1ccc2oc(C)c(C(=O)NC3COCC3O)c2c1 (single isomer, unassigned; dia 1) [162-Dia 1-En2] |
| > 20000 | Cc1oc2ccc(OCC3CCNC3)cc2c1C(=O)O (stereo not shown) [compound 003, 2-methyl-5-(pyrrolidin-3-ylmethoxy)benzofuran-3-carboxylic acid] |
| > 20000 | Cc1oc2ccc(OCc3ccncc3)cc2c1C(=O)O [compound 004, 2-methyl-5-(pyridin-4-ylmethoxy)benzofuran-3-carboxylic acid] |
| > 20000 | Cc1oc2ccc(OCc3ccnn3C)cc2c1C(=O)O [compound 008, 2-methyl-5-((1-methyl-1H-pyrazol-5-yl)methoxy)benzofuran-3-carboxylic acid] |

Same assay, conditions: PS (50 μM) stimulated, cpds. 608-666

| IC50 [nM] | SMILES |
| --- | --- |
| < 1000 | Cc1oc2ccc(OCc3cccnc3O)cc2c1C(=O)NC1CNCCC1(F)F (single isomer, unassigned) [cpd 637-En 1] |
| < 1000 | Cc1oc2ccc(OCc3nccn3C)cc2c1C(=O)NC1CNCC1(F)F (single isomer, unassigned) [cpd 638-En 1] |
| 1000 to 20000 | Cc1oc2ccc(OCc3nccn3C)cc2c1C(=O)NC1CNCC1(F)F (single isomer, unassigned) [cpd 638-En 2] |
| < 1000 | Cc1oc2ccc(OCc3ccnn3C)cc2c1C(=O)NC1CNCC1(F)F (single isomer, unassigned) [cpd 639-En 1] |
| 1000 to 20000 | Cc1oc2ccc(OCc3nccn3C)cc2c1C(=O)NC1COCC1(F)F (single isomer, unassigned) [cpd 641-En 1] |
| < 1000 | Cc1oc2ccc(OCc3ccnn3C)cc2c1C(=O)NC1COCC1(F)F (single isomer, unassigned) [cpd 642-En 1] |
| < 1000 | Cc1ncc(COc2ccc3oc(C)c(C(=O)NC4COCC4(F)F)c3c2)s1 (single isomer, unassigned) [cpd 643-En 1] |
| < 1000 | Cc1ncsc1COc1ccc2oc(C)c(C(=O)NC3COCC3(F)F)c2c1 (single isomer, unassigned) [cpd 646-En 1] |
| < 1000 | Cc1oc2ccc(OCc3ccccn3)cc2c1C(=O)NC1COCC1(F)F (single isomer, unassigned) [cpd 647-En 1] |
| < 1000 | Cc1oc2ccc(OCc3cccnc3O)cc2c1C(=O)NC1COCC1(F)F (single isomer, unassigned) [cpd 648-En 1] |
| < 1000 | Cc1ncsc1COc1ccc2oc(C)c(C(=O)NC3CCCCNC3=O)c2c1 (single isomer, unassigned) [cpd 661-En 1] |

Same assay, conditions: PS (50 μM) stimulated, cpds. 667-751

| IC50 [nM] | SMILES |
| --- | --- |
| < 1000 | Cc1ncc(COc2ccc3oc(C)c(C(=O)NC(C)(CO)C(N)=O)c3c2)o1 (single isomer, unassigned) [cpd 722-En 1] |
| < 1000 | Cc1ncc(COc2ccc3oc(C)c(C(=O)NC(C)(CO)C(N)=O)c3c2)o1 (single isomer, unassigned) [cpd 722-En 2] |
| < 1000 | Cc1ncsc1COc1ccc2oc(C)c(C(=O)NC3CCOCC3(F)F)c2c1 (single isomer, unassigned) [cpd 723-En 1] |
| < 1000 | Cc1ncc(COc2ccc3oc(C)c(C(=O)NC4CCOCC4(F)F)c3c2)s1 (single isomer, unassigned) [cpd 724-En 1] |
| 1000 to 20000 | Cc1ncc(COc2ccc3oc(C)c(C(=O)NC4CCOCC4(F)F)c3c2)s1 (single isomer, unassigned) [cpd 724-En 2] |
| < 1000 | Cc1ncc(COc2ccc3oc(C)c(C(=O)NC(CS(C)(=O)=O)C(N)=O)c3c2)s1 (single isomer, unassigned) [cpd 726-En 1] |
| 1000 to 20000 | Cc1ncc(COc2ccc3oc(C)c(C(=O)NC4CCS(=N)(=O)C4)c3c2)s1 (single isomer, unassigned) [cpd 727-En 1] |
| < 1000 | Cc1oc2ccc(OCc3ccccn3)cc2c1C(=O)NC(C)(CO)C(N)=O (single isomer, unassigned) [cpd 738-En 1] |
| < 1000 | Cc1oc2ccc(OCc3ccc(F)cn3)cc2c1C(=O)NC(C)(CO)C(N)=O (single isomer, unassigned) [cpd 739-En 1] |
